Tests used:
[1] = tested on: Enterococcus faecalis; assay: Suitability of colorimetric detection compounds for bioelectrochemical detection of Enterococcus faecalis; format: cell-based; settings: compound used for colorimetric detection of Enterococcus faecalis
Source text: Bioelectroanalytical techniques are emerging as ways to enumerate and scrutinize microbial systems. But there is still need in the art for technologies specifically designed for bioelectroanalytical detection of FIB. […] The latter, in particular, makes them unsuitable in self-powering systems.

[2] = tested on: Escherichia coli strain BL21; assay: Chronoamperometric detection of E. coli with electrochemically active reporters in three-electrode electrochemical systems (ECs); format: cell-based; settings: for Detection time (±std dev): chronoamperometry in ECs, reporter 50 μM
Method: Resorufin (TCI-Europe), 2-hydroxy-1,4-naphthoquinone (2H14NQ) (TCI-Europe), 5-hydroxy-1,4-naphthoquinone (5H14NQ) (TCI-Europe) and 5,8-dihydroxy-1,4-naphthoquinone (58H14NQ) (Sigma-Aldrich) were obtained commercially and added to M9 medium in their unconjugated form to achieve a working concentration of 50 μM. Resorufin glycoconjugates (resorufin-β-d-galactopyranoside and resorufin-β-d-glucopyranoside) were obtained commercially (Sigma-Aldrich), whereas 2-hydroxy-1,4-naphthoquinone-β-d-galactopyranoside (2H14NQGal) and 2-hydroxy-1,4-naphthoquinone-β-d-glucopyranoside (2H14NQG1u) were specifically synthesized by Sussex Research Ltd. All reporters were added to a final concentration of 50 μM. Stock concentrations (1.0×10^−3 M) of 2H14NQ and 5H14NQ were prepared by first dissolving in 10 μL of 2 M NaOH and then making up to volume in Type II water (Veolia) whereas 58H14NQ (1.0×10^−3 M) was prepared in 1:1 DMSO:Type II water aliquots. Both stock solutions were stored at −20° C. until needed. Conjugated reporters were maintained as 1 mM stock solutions in Type II water and stored at 5° C.
(§1) Escherichia coli strain BL21 was selected to represent a FIB of human origin that contains the uidA and lacZ genes, i.e. a FC, whereas Aeromonas hydrophila (DSM 6173) is an environmental organism that has the lacZ gene but which is not considered a coliform. All organisms were cultured aerobically for 20 h. E. coli was grown in Luria Bertani (Lennox) medium at 37° C., and A. hydrophile at 30° C. in tryptone soy broth (TSB) in a shaking incubator.
(§2) The resulting overnight cultures were diluted in sterile modified M9 medium (Na2HPO4.7H2O (126 mM); KH2PO4 (110 mM); NH4Cl (93 mM); NaCl (42 mM); 1 mL/L vitamin stock solution; tryptone 12.5 g/L; HEPES: 6 g/L; and macro nutrients). The carbon source was either D-galacturonic acid or D-glucuronic acid (3.75 g/L) to achieve a final inoculum density in the range of 1.0×10^0, 5.0×10^0, 5.0×10^1, 5.0×10^2, 5.0×10^3, 5.0×10^4, and 5.0×10^5 CFU mL^−1 in both electrochemical system and the bioelectrochemical system.
Conical ECs with a working volume of 10 mL were used with a customized Teflon cap to accommodate a three electrode configuration along with gas fittings to maintain a moist anaerobic atmosphere. Carbon felt working electrodes (1×1×0.318 cm) (VWR, Singapore) were kept for 24 h in 1 M HCl and stored in deionized (DI) water before use. The electrodes were connected to titanium wire (0.25 mmØ, Sigma-Aldrich) using a nylon nut and bolt. A coiled titanium wire was used as counter electrode and an Ag/AgCl reference electrode (78 mm, 6 mm Outer Ø, Biologic, France) was connected using a 1 M KCl in 1.5% agar salt bridge. The assembled cell was then filled with 1 M KCl solution ending in a 4 mm glass frit (CoralPor™, Biologic, France). The entire assembly was then autoclaved (121° C. for 15 min). Nine mL of degassed modified M9 medium was added to the ECs and supplemented with a reporter to a final concentration of 5.0×10^−5 M in 10 mL working volume. The ECs were then inoculated with the targeted test organism to achieve a final working volume of 10 mL. The headspace was flushed continuously with sterile humidified N2. The ECs were operated at 30° C., 37° C. or 44.5° C. Stirring was maintained continuously with a magnetic stirrer in the dark to prevent photo-bleaching of the light sensitive mediators.
Following reporter supplement and inoculation with the test microorganism, the ECs were connected to a multichannel potentiostat (Biologic, France) and cyclic voltammetry (CV) and differential pulse voltammetry (DPV) were performed immediately. Data acquisition was recorded by EC-Lab software (Biologic, France). Chronoamperometry (CA) was applied for up to 24 h to detect redox active reporter moieties. A detection event was calculated as 4 times the standard deviation of the baseline and detection times are expressed as the mean of triplicate analyses unless stated otherwise. […]

[3] = tested on: A. hydrophila; assay: Electrochemical detection of A. hydrophila in ECs; format: cell-based, Aeromonas hydrophila; settings: both 30° C. and 37° C. (FIG. 5)
Method: as §1
(§3) Conical ECs with a working volume of 10 mL were used with a customized Teflon cap to accommodate a three electrode configuration along with gas fittings to maintain a moist anaerobic atmosphere. Carbon felt working electrodes (1×1×0.318 cm) (VWR, Singapore) were kept for 24 h in 1 M HCl and stored in deionized (DI) water before use. The electrodes were connected to titanium wire (0.25 mmØ, Sigma-Aldrich) using a nylon nut and bolt. […]
(§4) Following reporter supplement and inoculation with the test microorganism, the ECs were connected to a multichannel potentiostat (Biologic, France) and cyclic voltammetry (CV) and differential pulse voltammetry (DPV) were performed immediately. Data acquisition was recorded by EC-Lab software (Biologic, France). […] A detection event was calculated as 4 times the standard deviation of the baseline and detection times are expressed as the mean of triplicate analyses unless stated otherwise. […]

[4] = tested on: mixed culture of E. coli and A. hydrophila; assay: Detection time of mixed culture of A. hydrophila and E. coli in ECs; format: cell-based, Escherichia coli; Aeromonas hydrophila; settings: 30° C., E. coli constant 5×10^5 CFU mL^−1
Method: as §1, §2
as §3, with “bolt. A coiled titanium wire was used as counter electrode and an Ag/AgCl reference electrode (78 mm, 6 mm Outer Ø, Biologic, France) was connected using a 1 M KCl in 1.5% agar salt bridge.” for “bolt.”
as §4

Row | Structure (SMILES) | Suitability for bioelectrochemical detection [1] | Detection time (±std dev) ([2]; 30° C., inoculum 5 × 10^2 CFU mL^−1) | Detection time (±std dev) ([2]; 30° C., inoculum 5 × 10^3 CFU mL^−1) | Detection time (±std dev) ([2]; 30° C., inoculum 5 × 10^4 CFU mL^−1) | Detection time (±std dev) ([2]; 30° C., inoculum 5 × 10^5 CFU mL^−1) | Detection times for E. coli ([2]; 30° C., inoculum sizes 5×10^5-5×10^2) [min] | Detection time (±std dev) ([2]; 37° C., inoculum 5 × 10^2 CFU mL^−1) | Detection time (±std dev) ([2]; 37° C., inoculum 5 × 10^3 CFU mL^−1) | Detection time (±std dev) ([2]; 37° C., inoculum 5 × 10^4 CFU mL^−1) | Detection time (±std dev) ([2]; 37° C., inoculum 5 × 10^5 CFU mL^−1) | Detection time ([2]; inoculum size 5×10^3 CFU mL^−1, ECs) [h] | Detection of E. coli achieved in (time) ([2]; inoculum sizes between 5×10^5 and 5×10^3 CFU mL^−1, ECs, triplicate) [h] | Electrochemical detection of A. hydrophila [3] | Detection time, mixed culture ([4]; A. hydrophila 5×10^2 CFU mL^−1 (FIG. 5)) [min] | Detection time, mixed culture ([4]; A. hydrophila 5×10^5 CFU mL^−1 (FIG. 5)) [min]
1 | Cc1cc(=O)oc2cc(OC3O[C@H](CO)[C@@H](O)[C@H](O)[C@H]3O)ccc12 (stereo partly drawn) [4-methylumbeliferone-glucoside] | not well suited for bioelectrochemical detection | – | – | – | – | – | – | – | – | – | – | – | – | – | –
2 | O=c1ccc2nc3ccc(O[C@@H]4O[C@H](CO)[C@H](O)[C@H](O)[C@H]4O)cc3oc-2c1 [ResGal, resorufin-β-d-galactopyranoside] | – | 521(±121) minutes | 372(±82) minutes | 218(±31) minutes | 150(±56) minutes | 132 to 521 | 734(±188) minutes | 477(±23) minutes | 309(±55) minutes | 260 (±55) minutes | ~8 | 4 to 10 | could be detected electrochemically | ~450 | ~280
